Assay results from publication PMC11278233, “The Composition of Triterpene Glycosides in the Sea Cucumber Psolus peronii: Anticancer Activity of the Glycosides against Three Human Breast Cancer Cell Lines and Quantitative Structure–Activity Relationships (QSAR)” (Marine Drugs, 2024).
Like-named read-outs stand apart in the source and are kept apart here.

What was measured:
[1] = system: human breast cancer cell line T-47D; assay: cells; format: cell-based
[2] = system: triple-negative human breast cancer cell line MDA-MB-231; assay: cells; format: cell-based
[3] = system: human breast cancer cell line MCF-7; assay: cells; format: cell-based
[4] = system: non-transformed epithelial cells of the mammary gland MCF-10A; assay: in vitro; format: cell-based, human
human erythrocytes = assay: Hemolytic activity; format: cell-based; conditions: for IC50: Erythrocyte, 1 h at 37 °C, lysis of 50% of erythrocytes
Description: A total of 450 g of human blood (B(III) Rh+) was used to obtain erythrocytes by centrifuging it three times for 5 min with phosphate-buffered saline (PBS) (pH 7.4) at 4 °C on the centrifuge LABOFUGE 400R (Heraeus, Hanau, Germany). Ice-cold PBS (pH 7.4) was used for resuspension of the erythrocyte residue to a final optical density of 1.5 at 700 nm, which was kept on ice. Then, 20 µL of the tested compound solutions was added to 180 µL of the erythrocyte suspension in V-bottom 96-well plates and exposed for 1 h at 37 °C. The layers were separated by centrifugation at 900 g for 10 min on the laboratory centrifuge LMC-3000 (Biosan, Riga, Latvia). A total of 100 µL of the supernatant was carefully decanted and transferred into a new flat plate. The values of erythrocyte lysis were measured on a microplate photometer Multiskan FC (Thermo Fisher Scientific, Waltham, MA, USA) at λ = 570 nm as the hemoglobin concentration in the supernatant. […] All the experiments were carried out in triple repetitions; p ≤ 0.05.

in vitro = format: cell-based, human; conditions: human
[5] = Homo sapiens, T47D, 24 h, read-out: Cytotoxicity, IC50 µM T-47D
[6] = Homo sapiens, MDA-MB-231, 24 h, read-out: Cytotoxicity, IC50 µM MDA-MD-231
[7] = Homo sapiens, MCF7, 24 h, read-out: Cytotoxicity, IC50 µM MCF-7

| SMILES | IC50 [1] | IC50 [2] | IC50 [3] | IC50 [4] | IC50 [1, 5] | IC50 [2, 6] | IC50 [3, 7] | hemolytic activity (result in words) (human erythrocytes) | IC50 (human erythrocytes) | IC50 at 24 h (in vitro) |
| --- | --- | --- | --- | --- | --- | --- | --- | --- | --- | --- |
| C=C(C)CCC[C@]1(C)OC(=O)[C@]23CC=C4[C@@H](CC[C@H]5C(C)(C)[C@@H](O[C@@H]6OC[C@@H](O[C@@H]7O[C@H](COS(=O)(=O)O)[C@@H](O)[C@H](O)[C@H]7O)[C@H](O)[C@H]6O[C@@H]6O[C@H](CO)[C@@H](O[C@@H]7O[C@H](COS(=O)(=O)O)[C@@H](O)[C@H](O[C@@H]8O[C@H](COS(=O)(=O)O)[C@@H](O)[C@H](OC)[C@H]8O)[C@H]7O)[C@H](O)[C@H]6O)CC[C@]45C)[C@]2(C)CC(=O)[C@@H]31 [psolusoside N (7), psolusoside N] | > 50 µM | 39.3 ± 2.89 µM | > 50 µM | > 50 µM | – | – | – | – | – | – |
| C=C(C)CCC[C@]1(C)OC(=O)[C@]23CC[C@@H]4C(=CC[C@H]5C(C)(C)[C@@H](O[C@@H]6OC[C@@H](O[C@@H]7O[C@H](CO)[C@@H](O)[C@H](O)[C@H]7OS(=O)(=O)[O-])[C@H](O)[C@H]6O[C@@H]6O[C@H](CO)[C@@H](O[C@@H]7O[C@H](COS(=O)(=O)[O-])[C@@H](O)[C@H](O)[C@H]7O)[C@H](O)[C@H]6O)CC[C@]45C)[C@]2(C)CC(=O)[C@@H]31.[Na+].[Na+] [peronioside A (1), 3β-O-{6-O-sodium-sulfate-β-D-glucopyranosyl-(1→4)-β-D-glucopyranosyl-(1→2)-[2-O-sodium-sulfate-β-D-glucopyranosyl-(1→4)]-β-D-xylopyranosyl}-16-oxoholosta-7,25-diene] | – | – | – | – | > 50 µM | > 50 µM | > 50 µM | moderate hemolytic activity | 30.8 ± 1.01 µM | > 50 µM |
| C=C(C)CCC[C@](C)(OC(C)=O)[C@H]1[C@@H]2C[C@@]3(C)C4=CC[C@H]5C(C)(C)[C@@H](O[C@@H]6OC[C@@H](O[C@@H]7O[C@H](CO)[C@@H](O)[C@H](O)[C@H]7OS(=O)(=O)[O-])[C@H](O)[C@H]6O[C@@H]6O[C@H](CO)[C@@H](O[C@@H]7O[C@H](COS(=O)(=O)[O-])[C@@H](O)[C@H](O)[C@H]7O)[C@H](O)[C@H]6O)CC[C@]5(C)C4CC[C@]13C(=O)O2.[Na+].[Na+] (stereo partly drawn) [psolusoside B (3), psolusoside B] | – | – | – | – | > 50 µM | > 50 µM | > 50 µM | almost not active | 74.6 ± 1.21 µM | > 50 µM |
| C=C(C)CCC[C@]1(C)OC(=O)[C@]23CC=C4[C@@H](CC[C@H]5C(C)(C)[C@@H](O[C@@H]6OC[C@@H](O)[C@H](O)[C@H]6O[C@@H]6O[C@H](CO)[C@@H](O[C@@H]7O[C@H](COS(=O)(=O)O)[C@@H](O)[C@H](O[C@@H]8O[C@H](COS(=O)(=O)O)[C@@H](O)[C@H](OC)[C@H]8O)[C@H]7O)[C@H](O)[C@H]6O)CC[C@]45C)[C@]2(C)CC(=O)[C@@H]31 [psolusoside G (4), psolusoside G] | – | – | – | – | 16 ± 1.17 µM | 11 ± 0.36 µM | 11.4 ± 0.36 µM | – | 2.7 ± 0.09 µM | > 50 µM |
| C=C(C)CCC[C@]1(C)OC(=O)[C@]23CC=C4[C@@H](CC[C@H]5C(C)(C)[C@@H](O[C@@H]6OC[C@@H](O[C@@H]7O[C@H](COS(=O)(=O)O)[C@@H](OS(=O)(=O)O)[C@H](O)[C@H]7O)[C@H](O)[C@H]6O[C@@H]6O[C@H](C)[C@@H](O[C@@H]7O[C@H](COS(=O)(=O)O)[C@@H](O)[C@H](O[C@@H]8O[C@H](COS(=O)(=O)O)[C@@H](O)[C@H](OC)[C@H]8O)[C@H]7O)[C@H](O)[C@H]6O)CC[C@]45C)[C@]2(C)CC(=O)[C@@H]31 [psolusoside P (8), psolusoside P] | 37.1 ± 0.83 µM | 33.3 ± 1.31 µM | > 50 µM | > 50 µM | – | – | – | – | – | – |
| C=C(C)CCC[C@]1(C)OC(=O)[C@]23CCC4C(=CC[C@H]5C(C)(C)[C@@H](O[C@@H]6OC[C@@H](O[C@@H]7O[C@H](COS(=O)(=O)O)[C@@H](O)[C@H](O)[C@H]7O)[C@H](O)[C@H]6O[C@@H]6OC[C@@H](O[C@@H]7O[C@H](COS(=O)(=O)O)[C@@H](O)[C@H](O)[C@H]7O)[C@H](O)[C@H]6O)CC[C@]45C)[C@]2(C)C[C@H](OC(C)=O)[C@@H]31 (stereo partly drawn) [psolusoside I (5), psolusoside I] | – | – | – | – | 19.6 ± 0.61 µM | 33.1 ± 0.85 µM | > 50 µM | – | 8.49 ± 0.49 µM | > 50 µM |
